Reference: patent publication US6849593B1, “Bifidogenic peptides” (Pharis Biotec GmbH, priority 1997, dated 2005)

System: Bifidobacterium bifidum ATCC 29521
Experiment: bifidogenic activity: growth test with bifidobacteria in combination with a growth test with E. coli
Assay type: cell-based
Settings: growth of Bifidobacterium bifidum (50% Elliker broth, anaerobic, 37° C., 16 hours) relative to growth of E. coli K12 (3 g/l tryptic soy broth, 16 hours); desalted HPLC fractions from pepsin-treated human milk
Protocol: This object is achieved by peptides having the features of claim 1. […]
For each assay, cultures of E. coli K12 were freshly inoculated in tryptic soy broth (Sigma, Deisenhofen, Germany, order No. T8907) (Difco Manual, 10th ed., p. 1027). […] The photometric absorption of the inoculum was 0.05, measured at 500 nm. The growth of the bacteria under the influence of the peptides was also photometrically determined in an ELISA reader after 16 hours and manually determined by microscopy.
For each assay, cultures of Bifidobacterium bifidum ATCC 29521 were freshly inoculated in Elliker broth (Difco, Detroit, USA) (tryptone 20 g, yeast extract 5 g, gelatin 2.5 g, dextrose 5 g, lactose 5 g, saccharose 5 g, sodium chloride 4 g, sodium acetate 1.5 g, ascorbic acid 0.5 g). […] The photometric absorption of the inoculum was 0.05, measured at 550 nm. The growth of the bacteria under the influence of the peptides was also photometrically determined in an ELISA reader after 16 hours and manually determined by microscopy. […]

| Sequence | bifidogenic activity |
| --- | --- |
| GRRRRSVQWCAVSQPEATKCFQWQRNMRKVRGPPVSCIKRDSPICCIQA (GRRRSVQWCAVSQPEATKCFQWQRNMRKVRGPPVSCIKRDSPIQCIQA) [neutrophile lactoferrin-20-67, bifidogenic component of fraction 10, peptide isolated from pepsin-treated human milk] | bifidogenic |
| YQRRPAIAINNPYVPRTYYANPAVVRPHAQIPQRQYLPNSHPPTVVRRPLPSF (YQRRPAIAINNPYVPRTYYANPAVVRPHAQIPQRQYLPNSHPPTVVRRPNLHPSF) [casein K-63-117, pure bifidogenic component of fraction 9, peptide isolated from pepsin-treated human milk] | bifidogenic |
